Source: patent publication US9880151B2, “Method of determining, identifying or isolating cell-penetrating peptides” (Phylogica Limited, priority 2011, dated 2018)

Key:
endosome = conditions: Sugita et al. 2008; cited from earlier work
CHO-K1 cells [1] = experiment: Live confocal microscopy of FITC-labelled peptides; assay type: cell-based, Chinese hamster; conditions: 60 minutes (FIG. 18)
Description: (§1) bEnd.3 and CHO-K1 cells were seeded at 3×10^4/well and 5×10^4/well respectively, on 8-well Lab-Tek H chambered coverglass slides. Slides were incubated for 24 h prior to analysis at 37° C. at 5% CO2. Wells were washed twice with medium containing 1% FBS, and 5-10 μM FITC-labeled peptide in 1% FBS media was added to wells, and cells were imaged at 30 and 60 minutes later.
(§2) Briefly, bEnd.3 and CHO cells were seeded at subconfluent density (˜50%) on 8-well chambered coverglasses, incubated for 24 hrs, washed with culture medium containing 1% FBS and then incubated with 5-30 μM of labelled peptide for 1 hr in culture media containing 1% FBS before being imaged using confocal microscopy.

cells = experiment: Flow cytometry optimisation with FITC-labelled PYC38 (+/-TAT); assay type: cell-based; conditions: FITC-labelled peptide
Description: (§3) Cells were seeded in 6-well plates and then grown for 24 hours before peptide was added for 1 hour at 37° C. Cells were harvested via trypsinization, and then assayed for peptide internalization/binding by flow cytometry.
(§4) The flow cytometry procedure was initially optimized using fluorophore-labelled TAT-PYC38. Subsequently, FITC-labelled peptides from the Phase 1-Pilot and Phase 2-CPP screens were assessed at 10 μM concentrations for internalization using CHO and bEnd3 cells. Peptides that scored as positive in the cell binding/internalization assay were subjected to further analysis using different temperatures and cell lines to determine cell selectivity. The cell-binding/uptake activity of pure (>85% purity) and Pepset (purity ranges from 40-80%) peptides was also compared to determine whether peptide purity affected CPP activity.

CHO or bEnd.3 cells = experiment: Live confocal microscopy screen for cell internalization, cell line not specified per result; assay type: cell-based; conditions: for cellular uptake by confocal microscopy: 10 μM (FIG. 20)
Description: as §1, §2

CHO-K1 cells [2] = experiment: Flow cytometry analysis of FITC-labelled peptide cell binding/uptake; assay type: cell-based, Chinese hamster; conditions: for cellular uptake into CHO-K1 cells measured using FITC: FIG. 36; for cellular uptake into CHO-K1: 37° C. and 4° C. (FIG. 34)
Description: (§5) CHO-K1 and bEnd.3 cells were seeded in 6-well plates at 5×10^5 cells/well in culture medium and incubated for 24 h at 37° C. in 5% CO2. Culture media was aspirated, and cells washed once with PBS to remove debris. Then, 1 mL of media containing 10 or 20 μM of FITC-peptide was added to wells, and plates were incubated for 1 h at 37° C. in 5% CO2. The cells were washed twice with 1×PBS, and 1 mL of 0.25% trypsin/EDTA added per well, and incubated at 37° C. for 4 min. Reactions were stopped by dilution of trypsin with 2 mL complete media. Cells were dislodged by gentle titration and transferred to flow cytometry tubes, washed twice with FACS buffer (0.5% BSA/0.01% NaN3/PBS), collected by centrifugation for 4 min at 1500 rpm, and resuspended in 0.3 mL fixing buffer solution (1% formaldehyde in PBS). Cells were filtered through gauze before reading on BD LSRII flow cytometer.
as §3, §4

bEnd.3 cells = experiment: as above; assay type: cell-based, mouse; conditions: FIG. 36
Description: as §5, §3, §4

CHO-K1 cells [3] = experiment: Fluorescent microscopy assessment of CPP internalisation; assay type: cell-based, Chinese hamster; conditions: 10 μM, CM and SF (FIGS. 30-32)
Description: (§6) CHO-K1 cells are seeded at 70,000 cells/slide chamber, and bEnd.3 cells are seeded at 40,000 cells/slide chamber. Cells are cultured for 24 h at 37° C. in 5% CO2, washed with PBS 1×, and FITC-labeled peptide (10 uM) is added to cells in 10% FBS (CM).
(§7) Alternatively, cells in serum-free (SF) medium are incubated for 1 h at 37° C., washed twice in PBS, fixed in 10% formaladehyde/PBS (15 min at RT), washed as before, incubated in, 300 nM DAPI/PBS solution for […] at RT, washed as before, and mounted onto slides.

[4] = tested on: bEnd.3 mouse brain endothelial cells; experiment: as above; assay type: cell-based; conditions: 10 μM, CM and SF (FIGS. 25-28)
Description: as §6, §7

[5] = tested on: primary cortical neuronal cultures; experiment: Glutamate excitotoxicity assay, neuroprotection by CPP-PYC36 fusions; assay type: cell-based; conditions: PYC36 alone, data not shown
Description: Peptides ID 4052 (SEQ ID NO: 16; Table 10), Peptides ID 4052a (SEQ ID NO: 26; Table 10), and TAT peptide ([…]; SEQ ID NO: 28) were each produced as fusions to the neuroprotective peptide PYC36 ([…]; SEQ ID NO: 29) described in WO 2008/034161. The fusion peptides were assayed for their ability to confer survival on primary cortical neuronal cultures by glutamate excitotoxicity assay as described in Example of WO 2008/034161.

Substance	cellular uptake into CHO-K1 cells measured using FITC (CHO-K1 cells [2])	cellular uptake into bEnd.3 cells measured using FITC (bEnd.3 cells)	internalisation into CHO-K1 cells, fluorescent microscopy (CHO-K1 cells [3])	internalisation into bEnd.3 cells, fluorescent microscopy [4]	also measured
transferrin: named in cited endosome escape study	–	–	–	–	efficiency of endosome escape (endosome): low
WTISSRRRKVNRAC [Peptide ID 4063, arginine-rich TAT-like CPP from non-coding region]	–	–	–	–	uptake into CHO-K1 cells by confocal microscopy (CHO-K1 cells [1]; 10 μM peptide): evidence of the uptake; uptake into CHO-K1 cells by confocal microscopy (CHO-K1 cells [1]; 30 μM peptide): uptake
rhaplarGswrGqpqqGpqrrGqlGG [PYC38, reference compound]	–	–	–	–	uptake into CHO-K1 cells by confocal microscopy (CHO-K1 cells [1]; 5 μM peptide): no detectable evidence of uptake; level of cell binding/internalization, PYC38-TAT versus PYC38 (cells): significantly lower; uptake by confocal microscopy, control peptides (CHO or bEnd.3 cells; 5-30 μM labelled peptide, 1 hr): no uptake
RFRCGRRKWQIGS [Peptide ID 9072, arginine-rich TAT-like CPP from non-coding region]	–	–	–	–	uptake into CHO-K1 cells, flow cytometry curve (CHO-K1 cells [2]; 10 μM, 37° C., vs PYC38-TAT positive control (FIG. 15)): largely overlaps with that for the positive control; cellular uptake by confocal microscopy (CHO or bEnd.3 cells): evidence for cellular uptake
4052 (WGCCGRSSRRRRTR) [compound 4052]	high uptake	high uptake	–	–	–
5008 (PYSRPHVQLWYPNRESCRSLIRSLGP) [compound 5008]	high uptake	high uptake	evidence for internalisation of the peptide into CHO-K1 cells	evidence for internalisation of the peptide into bEnd.3 cells	–
9170 (RCGRASRCRVRWMRRRRI) [compound 9170]	high uptake	high uptake	evidence for internalisation of the peptide into CHO-K1 cells	evidence for internalisation of the peptide into bEnd.3 cells	cellular uptake into CHO-K1 (CHO-K1 cells [2]): high uptake; cellular uptake by confocal microscopy (CHO or bEnd.3 cells): evidence for cellular uptake
0045 (PFLKRVPACLRLRR) [compound 0045]	–	–	evidence for internalisation of the peptide into CHO-K1 cells	evidence for internalisation of the peptide into bEnd.3 cells	cellular uptake into CHO-K1 (CHO-K1 cells [2]): high uptake
GLQGRRRQGYQSIKP (GLQRRRQGYQSIKP) [PYC36, neuroprotective peptide described in WO 2008/034161]	–	–	–	–	neuroprotective activity following glutamate induced neural damage [5]: negligible neuroprotective activity
